The conditions of data set [1]: rcm bond, 14-membered ring, Hoveyda-Grubbs II, DCE, 16.0 h.
For data set [2] the following is noted: from C=CCCCCN(C)C(=O)C1CC(Oc2ccnc(-c3ccccc3)n2)CC1C(=O)NC1(C(=O)NS(=O)(=O)C2CC2)CC1C=C; rcm bond; 14-membered ring; Hoveyda-Grubbs II; 150.0 °C; 0.17 h.
Data set [3] has as its system HCV replicons (wild type NS3-NS5B regions of HCV type 1b) in Huh-7 luc/neo cells. The data set can be described thus: Replicon assay (Huh-Luc cells, luciferase readout). Conditions: Hepatitis C virus, Huh-7, 72 h, incubation of three days, luciferase activity. It counts as cell-based. The text has this:
The compounds of formula (I) were examined for activity in the inhibition of HCV RNA replication in a cellular assay. […] The cellular assay was based on a bicistronic expression construct, as described by Lohmann et al. (1999) Science vol. 285 pp. 110-113 with modifications described by Krieger et al. (2001) Journal of Virology 75: 4614-4624, in a multi-target screening strategy. In essence, the method was as follows.
The assay utilized the stably transfected cell line Huh-7 luc/neo (hereafter referred to as Huh-Luc). This cell line harbors an RNA encoding a bicistronic expression construct comprising the wild type NS3-NS5B regions of HCV type 1b translated from an Internal Ribosome Entry Site (IRES) from encephalomyocarditis virus (EMCV), preceded by a reporter portion (FfL-luciferase), and a selectable marker portion (neo^R, neomycine phosphotransferase). The construct is bordered by 5′ and 3′ NTRs (non-translated regions) from HCV type 1b. Continued culture of the replicon cells in the presence of G418 (neo^R) is dependent on the replication of the HCV RNA. The stably transfected replicon cells that express HCV RNA, which replicates autonomously and to high levels, encoding inter alia luciferase, are used for screening the antiviral compounds.
The replicon cells were plated in 384 well plates in the presence of the test and control compounds which were added in various concentrations. Following an incubation of three days, HCV replication was measured by assaying luciferase activity (using standard luciferase assay substrates and reagents and a Perkin Elmer ViewLux™ ultraHTS microplate imager). Replicon cells in the control cultures have high luciferase expression in the absence of any inhibitor. The inhibitory activity of the compound on luciferase activity was monitored on the Huh-Luc cells, enabling a dose-response curve for each test compound. EC50 values were then calculated, which value represents the amount of the compound required to decrease by 50% the level of detected luciferase activity, or more specifically, the ability of the genetically linked HCV replicon RNA to replicate.

Data set [4] has as its target HCV NS3/4A protease complexes (full-length hepatitis C NS3 protease enzyme with NS4A cofactor) (Hepatitis C virus genotype 1a, UniProt P27958). The data set can be described thus: Inhibition assay (enzymatic assay, depsipeptide substrate hydrolysis). It is filed as biochemical. Conditions: enzyme 1 nM, 25 μM NS4A cofactor, 0.5 μM substrate, 30° C., competitive inhibition model. How it is done: The aim of this in vitro assay is to measure the inhibition of HCV NS3/4A protease complexes by the compounds of the present invention. This assay provides an indication of how effective compounds of the present invention would be in inhibiting HCV NS3/4A proteolytic activity.
The inhibition of full-length hepatitis C NS3 protease enzyme was measured essentially as described in Poliakov, 2002 Prot Expression & Purification 25 363 371. Briefly, the hydrolysis of a depsipeptide substrate, Ac-DED(Edans)EEAbuψ[COO]ASK(Dabcyl)-NH2 (AnaSpec, San José, USA), was measured spectrofluorometrically in the presence of a peptide cofactor, KKGSVVIVGRIVLSGK (Åke Engström, Department of Medical Biochemistry and Microbiology, Uppsala University, Sweden). [Landro, 1997 #Biochem 36 9340-9348]. The enzyme (1 nM) was incubated in 50 mM HEPES, pH 7.5, 10 mM DTT, 40% glycerol, 0.1% n-octyl-D-glucoside, with 25 μM NS4A cofactor and inhibitor at 30° C. for 10 min, whereupon the reaction was initiated by addition of 0.5 μM substrate. Inhibitors were dissolved in DMSO, sonicated for 30 sec. and vortexed. The solutions were stored at −20° C. between measurements.
The final concentration of DMSO in the assay sample was adjusted to 3.3%. The rate of hydrolysis was corrected for inner filter effects according to published procedures.
[Liu, 1999 Analytical Biochemistry 267 331-335]. Ki values were estimated by non-linear regression analysis (GraFit, Erithacus Software, Staines, MX, UK), using a model for competitive inhibition and a fixed value for Km (0.15 μM). A minimum of two replicates was performed for all measurements.

Where two headings read alike, the source gives them in different places.

Here are results for five molecules from US8937080B2, “Pyrimidine substituted macrocyclic HCV inhibitors” (Medivir AB, priority 2007, dated 2015).

Sequence of HCV NS3/4A protease complexes (full-length hepatitis C NS3 protease enzyme with NS4A cofactor) (P27958 1027-1657, other chains not shown): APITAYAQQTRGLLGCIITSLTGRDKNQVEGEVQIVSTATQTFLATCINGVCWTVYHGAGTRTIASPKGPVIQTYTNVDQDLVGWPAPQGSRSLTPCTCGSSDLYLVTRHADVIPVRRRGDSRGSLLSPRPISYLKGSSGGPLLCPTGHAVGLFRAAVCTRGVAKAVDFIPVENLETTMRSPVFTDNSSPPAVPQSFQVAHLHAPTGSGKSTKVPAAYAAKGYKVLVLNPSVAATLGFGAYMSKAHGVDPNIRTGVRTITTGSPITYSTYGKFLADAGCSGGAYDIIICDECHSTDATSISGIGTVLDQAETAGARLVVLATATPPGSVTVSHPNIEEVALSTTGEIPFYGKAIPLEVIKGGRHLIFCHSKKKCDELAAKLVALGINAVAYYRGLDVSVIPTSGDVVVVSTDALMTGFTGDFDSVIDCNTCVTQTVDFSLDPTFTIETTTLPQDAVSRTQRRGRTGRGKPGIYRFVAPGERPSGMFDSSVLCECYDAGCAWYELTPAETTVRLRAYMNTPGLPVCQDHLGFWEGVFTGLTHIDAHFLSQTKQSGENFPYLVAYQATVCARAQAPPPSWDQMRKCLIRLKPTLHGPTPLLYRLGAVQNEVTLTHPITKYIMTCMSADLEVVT

`CCOC(=O)C12CC1C=CCCCCN(C)C(=O)C1CC(Oc3cc(-c4ccccc4)nc(OC)n3)CC1C(=O)N2` (stereo not shown) showed a ring closure, isolated yield in data set [1] (from C=CCCCCN(C)C(=O)C1CC(Oc2cc(-c3ccccc3)nc(OC)n2)CC1C(=O)NC1(C(=O)OCC)CC1C=C, 1.83 mM) of 70%. `CCOC(=O)C12CC1C=CCCCCN(C)C(=O)C1CC(Oc3cc(C(C)(C)C)nc(OC)n3)CC1C(=O)N2` (stereo not shown): the ring closure, isolated yield in data set [1] (from C=CCCCCN(C)C(=O)C1CC(Oc2cc(C(C)(C)C)nc(OC)n2)CC1C(=O)NC1(C(=O)OCC)CC1C=C, 1.74 mM) stood at 74%. As to `CCOC(=O)C12CC1C=CCCCCN(C)C(=O)C1CC(Oc3cc(OC)nc(-c4ccccc4)n3)CC1C(=O)N2` (stereo not shown), the ring closure, isolated yield in data set [1] (from C=CCCCCN(C)C(=O)C1CC(Oc2cc(OC)nc(-c3ccccc3)n2)CC1C(=O)NC1(C(=O)OCC)CC1C=C, 1.69 mM) was found to be 38%. The molecule `CCOC(=O)C12CC1C=CCCCCN(C)C(=O)C1CC(Oc3cc(OC)nc(OC)n3)CC1C(=O)N2` (stereo not shown) had a ring closure, isolated yield in data set [1] (from C=CCCCCN(C)C(=O)C1CC(Oc2cc(OC)nc(OC)n2)CC1C(=O)NC1(C(=O)OCC)CC1C=C, 1.91 mM) of 49%. With `CN1CCCCC=CC2CC2(C(=O)NS(=O)(=O)C2CC2)NC(=O)C2CC(Oc3ccnc(-c4ccccc4)n3)CC2C1=O` (stereo not shown) [Example 10, Cyclopropanesulfonic acid [13-methyl-2,14-dioxo-17-(2-phenylpyrimidin-4-yloxy)-3,13-diaza-tricyclo[13.3.0.0*4,6*]octadec-7-ene-4-carbonyl]-amide], the ring closure, yield after HPLC in data set [2] came out at 16%. Further, in data set [3], the EC50 is > 10 µM. The Ki in data set [4] was > 1 µM.
